The values that follow are results of earlier work, collected in patent US20230372264A1 (priority 2020, published 2023).

Data set [1] deals with Candida sp. Conditions: reference [27].
Data set [2] relates to Streptococcus spp. Conditions: reference [27].
In data set [3] the test system is Staphylococcus aureus. As to conditions: reference [27].
Data set [4] deals with human breast cancer cells. Conditions: reference [16].
In data set [5] the test system is ACE2 receptor bonds with viral S-glycoproteins. Conditions: in vitro cellular models, cholesterol depletion, reference [5].
Data set [6] concerns SARS-CoV. As to conditions: reference [9].

Turning to `OCCc1ccc(O)c(O)c1` [hydroxytyrosol, 4-(2-hydroxyethyl)-1,2-dihydroxybenzene], the growth reduction in data set [1], in data set [2] and in data set [3] was 40% throughout.

Take hydroxypropyl-α-cyclodextrin: the “effectiveness against migration vs hydroxypropyl-β-cyclodextrin” value in data set [4] is “twice as effective”.

As for methyl-β-cyclodextrin [MβCD], the “number of ACE2 receptor bonds with viral S-glycoproteins” value in data set [5] is recorded as “halves”. The “inhibition of SARS-CoV infectivity” value in data set [6] was 90%.
